Test results: patent publication US7713960B2, “Inhibition of the Raf/Mek/P-Erk pathway for treating cancer” (University of South Florida, priority 2005, dated 2010)
Where a name gives a salt, the structure may show the parent alone.

Assays:
[1] = tested on: SF-539 cells; experiment: Total cellular cAMP measurement, SF-539; assay type: cell-based, human
Experimental: Total cellular cAMP measurement—The measurement of total cellular cAMP was done using a cAMP Biotrak ™ Enzymeimmunoassay (EIA) system (Amersham Biosciences, Piscataway, N.J.) according to the manufacturer's protocol. Briefly, 2000 cells were plated into each well of a 96 well plate. The next day cells were treated with increasing concentrations of ARA-211 or with vehicle for one hour. Alternatively, MDA-MB-231 cells were pre-treated with antagonists to the α1 (Prazosin, Sigma), α2 (Yohimbine, Sigma), β1 (Metoprolol, Sigma), and β2 (ICI 118.551, Sigma) adrenergic receptors at 100 nM for 15 minutes followed by treatment with 10 μM ARA-211 for 45 minutes. Cells were then lysed directly in the wells using the supplied lysis buffer. The lysate was transferred to a 96-well cAMP ELISA plate, and results were quantified using a Wallac Victor 2 plate reader.

[2] = tested on: MDA-MB-231 cells; experiment: Anchorage-dependent growth (MTT assay), MDA-MB-231; assay type: cell-based, human
Experimental: (§1) MTT Assay—2000 cells per well were plated into 96 well tissue culture plates, and the cells were allowed to attach overnight at 37° C. with 10% CO2. Cells were then treated with increasing concentrations of ARA-211, or vehicle (DMSO) and incubated for four days. At that time treatment medium was removed and replaced with 100 μl of lmg/ml MTT (Sigma-Aldrich, St. Louis, Mo.) in media and incubated at 37° C., 10% CO2 for 3 hours. After 3 hours the MTT media was removed and replaced with 100 μl/well of DMSO, rocked at room temperature for 5 minutes, then absorbance read at 540 nm on a micro-plate reader.

[3] = tested on: HCT-116 cells; experiment: Anchorage-dependent growth (MTT assay), HCT-116; assay type: cell-based, human
Experimental: as §1

[4] = tested on: SF-539 cells; experiment: Anchorage-independent growth (soft agar assay), SF-539; assay type: cell-based, human
Experimental: (§2) Soft Agar Assay—Anchorage independent growth assays were performed as previously described (Lerner et al., 1997). Briefly, agar was diluted to 0.3% in propagation media containing 20,000 cells and either vehicle or ARA-211 and 1 ml of cell/agar mixture plated on top of 2 ml of a 0.6% layer of agar in medium alone. Cells were grown for three to four weeks at 37° C., 10% Co2 and were fed weekly with 100 μl per well of media/treatment. Quantification of colonies was done using a GS-700 scanning densitometer.

[5] = tested on: A-549 cells; experiment: Anchorage-independent growth (soft agar assay), A-549; assay type: cell-based, human; conditions: n = 6
Experimental: as §2

[6] = tested on: ACHN cells; experiment: Apoptosis assay (Cell Death Detection ELISA), ACHN; assay type: cell-based, human; conditions: 48 hours
Experimental: Apoptosis Assay—Apoptosis was analyzed using the Cell Death Detection ELISA (Roche, Indianapolis, Ind.) measuring cytoplasmic histone-associated mono- and oligonucleosome DNA fragments. Procedures were carried out according to the manufacturers protocol. Briefly, 1×10^5 cells were plated in 60 mm dishes and treated with various doses of ARA-211 or vehicle for 48 hours. Cells were lysed with the provided lysis buffer and lysate was incubated on the ELISA plate for 1 hour to capture the histone associated DNA indicative of apoptotic cells. Anti-DNA peroxidase conjugated antibody was added to detect the cleaved DNA and the microplate was washed and developed with ABTS substrate which was quantitated by microplate reader at 405 nm.

[7] = tested on: Mek-1; experiment: In vivo kinase assay, intact MDA-MB-231 cells treated, Mek-1; assay type: cell-based, human; conditions: 10 μM
Experimental: In Vitro Kinase Assays—MDA-MB-231 cells (2×10^6) were lysed for 30 minutes at 4° C. in RIPA-150 buffer (10 mM Tris pH 7.5, 150 mM NaCl, 10% glycerol, 5 mM EDTA, 1% Triton X-100, 0.1% SDS, 100 μM sodium orthovanadate, 1 μM aprotinin, 10 μM leupeptin, 10 μM antipain). Cell debris was pelleted at 13000 rpm for 15 minutes at 4° C. and the lysate was rocked overnight with 10 μg of either c-Raf or MEK antibodies (Santa Cruz Biotechnologies, Santa Cruz, Calif.). 25 μl of protein A/G PLUS agarose (Santa Cruz Biotechnology) was then added and rocked for 4 hours at 4° C. Samples were spun at 2000 rpm for 5 minutes to collect the agarose beads, which were then washed four times with lysis buffer. On the final wash each pellet was divided into 5. […]

[8] = tested on: SNB-19 cells; experiment: Nude mouse xenograft model, SNB-19 (s.c.); assay type: in vivo, nude mice; conditions: SNB-19 xenograft; i.p. 75 mpk/day
From the text: Anti-tumor activity in nude mouse xenograft model—Female athymic nude (nu/nu) mice, 5-6 weeks old, were purchased from Charles River (Wilmington, Mass.) and allowed to acclimate in the animal facility for one week. After harvesting, A-549, SNB-19, ACHN, and HCT-116 cells were, resuspended in sterile PBS, and injected s.c. into the right and left flanks (10×10^6 cells per flank) of the mice as previously described (Sun et al., 2005). For MDA-MB-231, cells were harvested and resuspended in PBS (10×10^6 cells per 50 μl) and an equal volume of Matrigel (BD Biosciences, San Jose, Calif.). 100 μl of MDA-MB-231 cells in PBS/Matrigel were injected s.c. into the mammary fat pads between the 2nd and 3rd nipples on each side of the mice. Once the tumors reached approximately 200-300 mm^3 the mice were randomized and treated i.p. with 0.1 ml vehicle (PBS) or ARA-211. Each treatment group consisted of five mice (2 tumors per mouse, a total of 10 tumors). The tumor volumes were determined by measuring the length (l) and width (w) and calculating the volume (V=w^2l/2). Statistical significance between the control and treated animals was determined using a student's t test.

cAMP (Fold Induction) [1]: 13.1 ± 3.0 Fold
Compound: CC(C)(C)NCC(O)c1ccc(O)c(CO)n1 (centres unmarked) [ARA-211, 2-hydroxymethyl-3-hydroxy-6-(1-hydroxy-2-tert-butylaminoethyl) pyridine, dihydrochloride]
Anchorage Dependent Growth (% Inhibition) [2]: 60.6 ± 6.5%
Anchorage Dependent Growth (% Inhibition) [3]: 6.5 ± 4%
Anchorage Independent Growth (% Inhibition) [4]: 94.4 ± 1.5%
Anchorage Independent Growth (% Inhibition) [5]: 0 (n = 6) %
Apoptosis (% Induction) [6]: 11.4 ± 1.9%
Mek-1 kinase activity, intact cells first treated [7]: blocked
growth of tumors [8]: is not affected
